According to PubChem BioAssay (NCI):
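Interpolation was linear, between the two tested concentrations surrounding the appropriate level; five concentrations were tested over 48 hours in 96-well plates. TGI: total growth inhibition.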

Assays:
Test in all cases: NCI tumour cell line growth inhibition, 48 h
UACC-257 melanoma = system: UACC-257 melanoma
EKVX NSCLC = system: EKVX NSCLC
MDA-MB-435 = system: MDA-MB-435
M14 melanoma = system: M14 melanoma
A549 NSCLC = system: A549 NSCLC
OVCAR-5 ovarian = system: OVCAR-5 ovarian
UACC-62 melanoma = system: UACC-62 melanoma
K-562 leukemia = system: K-562 leukemia
MALME-3M melanoma = system: MALME-3M melanoma
SR leukemia = system: SR leukemia
HCC-2998 colon = system: HCC-2998 colon
MOLT-4 leukemia = system: MOLT-4 leukemia
SK-OV-3 ovarian = system: SK-OV-3 ovarian
NCI-H460 lung = system: NCI-H460 lung
TK-10 renal = system: TK-10 renal
IGROV1 ovarian = system: IGROV1 ovarian
RXF 393 renal = system: RXF 393 renal
HCT-15 colon = system: HCT-15 colon
HT29 colon = system: HT29 colon
HCT-116 colon = system: HCT-116 colon
SW-620 colon = system: SW-620 colon
MCF7 breast = system: MCF7 breast
PC-3 prostate = system: PC-3 prostate
HOP-92 NSCLC = system: HOP-92 NSCLC
T-47D breast = system: T-47D breast
SK-MEL-5 melanoma = system: SK-MEL-5 melanoma
ACHN renal = system: ACHN renal
DU-145 prostate = system: DU-145 prostate
NCI-H23 lung = system: NCI-H23 lung
HOP-62 NSCLC = system: HOP-62 NSCLC
MDA-N = system: MDA-N
NCI/ADR-RES ovarian = system: NCI/ADR-RES ovarian
OVCAR-3 ovarian = system: OVCAR-3 ovarian
UO-31 renal = system: UO-31 renal
SF-295 CNS = system: SF-295 CNS
COLO 205 colon = system: COLO 205 colon
SK-MEL-2 melanoma = system: SK-MEL-2 melanoma
786-0 renal = system: 786-0 renal
SN12C renal = system: SN12C renal
OVCAR-4 ovarian = system: OVCAR-4 ovarian
NCI-H522 lung = system: NCI-H522 lung
SF-268 CNS = system: SF-268 CNS
HS 578T breast = system: HS 578T breast
BT-549 breast = system: BT-549 breast
U251 CNS = system: U251 CNS
KM12 colon = system: KM12 colon
MDA-MB-231 breast = system: MDA-MB-231 breast
SNB-75 CNS = system: SNB-75 CNS
A498 renal = system: A498 renal
CCRF-CEM leukemia = system: CCRF-CEM leukemia
SNB-19 CNS = system: SNB-19 CNS
CAKI-1 renal = system: CAKI-1 renal
NCI-H226 lung = system: NCI-H226 lung
SK-MEL-28 melanoma = system: SK-MEL-28 melanoma
HL-60(TB) leukemia = system: HL-60(TB) leukemia
OVCAR-8 ovarian = system: OVCAR-8 ovarian
LOX IMVI melanoma = system: LOX IMVI melanoma
RPMI-8226 leukemia = system: RPMI-8226 leukemia
SF-539 CNS = system: SF-539 CNS

Measured: TGI

CCCCCCCCC/C=C1\CC(CO)(COC(=O)c2ccccc2)OC1=O (configuration not stated)
72.6 µM: T-47D breast
79.4 µM: UACC-62 melanoma
34 µM: EKVX NSCLC
35.3 µM: HT29 colon
57.2 µM: KM12 colon
52.5 µM: CAKI-1 renal
54 µM: SF-268 CNS
79.9 µM: UACC-257 melanoma
32.8 µM: UO-31 renal
33.2 µM: OVCAR-5 ovarian
57.9 µM: NCI-H226 lung
52.8 µM: HCT-116 colon
33.4 µM: NCI-H522 lung
58.3 µM: A498 renal
51.9 µM: NCI/ADR-RES ovarian
33 µM: COLO 205 colon
34.2 µM: SW-620 colon
70.4 µM: IGROV1 ovarian
39 µM: SF-295 CNS
40.2 µM: HS 578T breast | SNB-19 CNS
47.6 µM: NCI-H460 lung
41.9 µM: NCI-H23 lung
38.3 µM: SNB-75 CNS
29.8 µM: HOP-62 NSCLC
39.8 µM: 786-0 renal
36.6 µM: M14 melanoma
36.3 µM: MDA-MB-435
40.4 µM: MDA-MB-231 breast
39.5 µM: MALME-3M melanoma | U251 CNS
48.9 µM: MCF7 breast
31.8 µM: SK-MEL-28 melanoma
35.5 µM: HCT-15 colon
28.6 µM: SK-MEL-5 melanoma
52.9 µM: A549 NSCLC
52.1 µM: BT-549 breast
44.4 µM: TK-10 renal
47.4 µM: RXF 393 renal
43.3 µM: SK-OV-3 ovarian
34.7 µM: PC-3 prostate
43.1 µM: MDA-N | OVCAR-3 ovarian
39.3 µM: HCC-2998 colon
30.4 µM: HOP-92 NSCLC
49.7 µM: SN12C renal
not listed: HL-60(TB) leukemia | OVCAR-8 ovarian | LOX IMVI melanoma | RPMI-8226 leukemia | SF-539 CNS
> 100 µM: all other assays above

Cn1ccc(C(=O)NCCCCCNC(=O)c2ccn(C)c(=O)c2O)c(O)c1=O
not listed: EKVX NSCLC | M14 melanoma | OVCAR-5 ovarian | K-562 leukemia | MOLT-4 leukemia | SK-OV-3 ovarian | IGROV1 ovarian | RXF 393 renal | MCF7 breast | HOP-62 NSCLC | OVCAR-3 ovarian | SF-295 CNS | SNB-75 CNS | RPMI-8226 leukemia | SF-539 CNS
> 100 µM: all other assays above

COc1ccc(/C=C2\CN(C)Cc3c2[nH]c(=O)c(C#N)c3-c2ccc(OC)cc2)cc1
71.6 µM: RPMI-8226 leukemia
51.1 µM: 786-0 renal
63.3 µM: RXF 393 renal
31.8 µM: HL-60(TB) leukemia
not listed: SR leukemia | HCC-2998 colon | SNB-75 CNS | A498 renal | SF-539 CNS
> 100 µM: all other assays above

CN(c1ccccc1Cl)S(=O)(=O)c1ccccc1[N+](=O)[O-]
95.9 µM: NCI/ADR-RES ovarian
46.3 µM: M14 melanoma
90 µM: RXF 393 renal
28.9 µM: SK-MEL-5 melanoma
not listed: MCF7 breast | HOP-92 NSCLC | ACHN renal | A498 renal
> 100 µM: all other assays above
